In patent US8916575B2, “Quinazoline derivatives for the treatment of viral infections and further diseases” (Janssen R&D Ireland, priority 2011, dated 2014):

How the values were obtained:
[1] = tested on: human TLR7 mutant (dIRR2); test: TLR7 mutant (deletion in second leucine-rich repeat) NFκB-luc cellular reporter assay; format: cell-based; parameters: unit not given here; settings: HEK293 NFκB-luc reporter, mutant TLR7, 6 hours incubation
Procedure: (§1) The ability of compounds to activate human TLR7 and/or TLR8 was assessed in a cellular reporter assay using HEK293 cells transiently transfected with a TLR7 or TLR8 expression vector and NFκB-luc reporter construct. In one instance the TLR expression construct expresses the respective wild type sequence or a mutant sequence comprising a deletion in the second leucine-rich repeat of the TLR.
(§2) Briefly, HEK293 cells were grown in culture medium (DMEM supplemented with 10% FCS and 2 mM Glutamine). For transfection of cells in 10 cm dishes, cells were detached with Trypsin-EDTA, transfected with a mix of CMV-TLR7 or TLR8 plasmid (750 ng), NFκB-luc plasmid (375 ng) and a transfection reagent and incubated 24 hours at 37° C. in a humidified 5% CO2 atmosphere. Transfected cells were then detached with Trypsin-EDTA, washed in PBS and resuspended in medium to a density of 1.67×10^5 cells/mL. Thirty microliters of cells were then dispensed into each well in 384-well plates, where 10 μL of compound in 4% DMSO was already present. Following 6 hours incubation at 37° C., 5% CO2, the luciferase activity was determined by adding 15 μl of Steady Lite Plus substrate (Perkin Elmer) to each well and readout performed on a ViewLux ultraHTS microplate imager (Perkin Elmer). Dose response curves were generated from measurements performed in quadruplicates. Lowest effective concentrations (LEC) values, defined as the concentration that induces an effect which is at least two fold above the standard deviation of the assay, were determined for each compound.

human TLR8 = molecular target: T1, human TLR8 (Homo sapiens, UniProt Q9NR97); test: TLR8 wild type NFκB-luc cellular reporter assay; format: cell-based; parameters: unit not given here; settings: HEK293 NFκB-luc reporter, 6 hours incubation; for TLR8-wt (LEC): second part of table
T1 construct: expressed in transfected cells; host or cells: HEK293
T1 sequence (Q9NR97 27-1041): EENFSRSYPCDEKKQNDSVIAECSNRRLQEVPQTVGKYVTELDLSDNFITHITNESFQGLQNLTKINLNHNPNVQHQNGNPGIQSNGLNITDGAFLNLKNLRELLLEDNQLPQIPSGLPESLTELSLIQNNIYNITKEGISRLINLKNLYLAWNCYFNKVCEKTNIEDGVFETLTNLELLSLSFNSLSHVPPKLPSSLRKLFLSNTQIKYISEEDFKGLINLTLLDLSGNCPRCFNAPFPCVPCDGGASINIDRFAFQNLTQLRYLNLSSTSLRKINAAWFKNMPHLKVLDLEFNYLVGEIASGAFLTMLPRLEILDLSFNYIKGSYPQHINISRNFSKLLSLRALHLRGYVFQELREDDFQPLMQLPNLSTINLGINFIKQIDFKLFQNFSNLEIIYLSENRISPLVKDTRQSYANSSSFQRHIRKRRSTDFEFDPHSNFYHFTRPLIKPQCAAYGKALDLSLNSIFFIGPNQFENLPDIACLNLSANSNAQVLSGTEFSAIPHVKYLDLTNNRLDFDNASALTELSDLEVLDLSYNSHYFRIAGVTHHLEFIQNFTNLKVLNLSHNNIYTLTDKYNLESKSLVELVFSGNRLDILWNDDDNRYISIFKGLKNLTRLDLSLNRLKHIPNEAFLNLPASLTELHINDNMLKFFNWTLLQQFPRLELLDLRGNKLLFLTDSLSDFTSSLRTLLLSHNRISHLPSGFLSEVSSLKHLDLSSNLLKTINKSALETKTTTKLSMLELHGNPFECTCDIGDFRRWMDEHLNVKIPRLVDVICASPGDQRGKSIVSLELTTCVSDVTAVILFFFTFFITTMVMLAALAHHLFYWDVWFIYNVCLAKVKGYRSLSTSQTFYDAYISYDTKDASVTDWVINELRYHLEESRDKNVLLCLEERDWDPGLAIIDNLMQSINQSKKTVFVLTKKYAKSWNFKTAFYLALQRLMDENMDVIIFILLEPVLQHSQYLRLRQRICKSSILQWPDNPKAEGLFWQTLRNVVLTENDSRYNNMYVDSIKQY
Procedure: as §1, §2

[2] = tested on: human TLR8 mutant (dIRR2); test: TLR8 mutant (deletion in second leucine-rich repeat) NFκB-luc cellular reporter assay; format: cell-based; parameters: unit not given here; settings: HEK293 NFκB-luc reporter, mutant TLR8, 6 hours incubation
Procedure: as §1, §2

[3] = tested on: HCV replicon (Huh-7 luc/neo cells); test: Suppression of HCV replicon replication by conditioned media from PBMC; format: cell-based, HCV type 1b; settings: Hepatitis C virus, compound concentration applied to PBMCs giving 50% reduction of replicon luciferase activity, read-out: PBMC-HUH7_EC50
Procedure: Activation of human TLR7 results in robust production of interferon by plasmacytoid dendritic cells present in human blood. The potential of compounds to induce interferon was evaluated by looking at the antiviral activity in the HCV replicon system upon incubation with conditioned media from peripheral blood mononuclear cells (PBMC). The HCV replicon assay is based on a bicistronic expression construct, as described by Lohmann et al. (Science (1999) 285: 110-113; Journal of Virology (2003) 77: 3007-15 3019) with modifications described by Krieger et al. (Journal of Virology (2001) 75: 4614-4624). The assay utilized the stably transfected cell line Huh-7 luc/neo harboring an RNA encoding a bicistronic expression construct comprising the wild type NS3-NS5B regions of HCV type 1b translated from an Internal Ribosome Entry Site (IRES) from encephalomyocarditis virus (EMCV), preceded by a reporter gene (Firefly-luciferase) and a selectable marker gene (neoR, neomycine phosphotransferase). The construct is flanked by 5′ and 3′ NTRs (non-translated regions) from HCV type 1b. Continued culture of the replicon cells in the presence of G418 (neoR) is dependent on the replication of the HCV RNA. The stably transfected replicon cells that replicate HCV RNA autonomously and to high levels, encoding inter alia luciferase, were used for profiling of the conditioned cell culture media.
Briefly, PBMCs were prepared from buffy coats of at least two donors using a standard Ficoll centrifugation protocol. Isolated PBMCs were resuspended in RPMI medium supplemented with 10% human AB serum and 2×10^5 cells/well were dispensed into 384-well plates containing compounds (70 μL total volume). After overnight incubation, 10 μL of supernatant was transferred to 384-well plates containing 2.2×10^3 replicon cells/well in 30 μL (plated the day before). Following 24 hours of incubation, replication was measured by assaying luciferase activity using 40 μL/well Steady Lite Plus substrate (Perkin Elmer) and measured with ViewLux ultraHTS microplate imager (Perkin Elmer). The inhibitory activity of each compound on the Huh7-luc/neo cells were reported as EC50 values, defined as the compound concentration applied to the PBMCs resulting in a 50% reduction of luciferase activity which in turn indicates the degree of replication of the replicon RNA on transfer of a defined amount of PBMC culture medium. Recombinant interferon α-2a (Roferon-A) was used as a standard control compound.

human TLR7 = molecular target: T2, human TLR7 (Homo sapiens, UniProt Q9NYK1); test: TLR7 wild type NFκB-luc cellular reporter assay; format: cell-based; parameters: unit not given here; settings: HEK293 NFκB-luc reporter, 6 hours incubation; for TLR7-wt (LEC): second part of table
T2 construct: expressed in transfected cells; host or cells: HEK293
T2 sequence (Q9NYK1 27-1049): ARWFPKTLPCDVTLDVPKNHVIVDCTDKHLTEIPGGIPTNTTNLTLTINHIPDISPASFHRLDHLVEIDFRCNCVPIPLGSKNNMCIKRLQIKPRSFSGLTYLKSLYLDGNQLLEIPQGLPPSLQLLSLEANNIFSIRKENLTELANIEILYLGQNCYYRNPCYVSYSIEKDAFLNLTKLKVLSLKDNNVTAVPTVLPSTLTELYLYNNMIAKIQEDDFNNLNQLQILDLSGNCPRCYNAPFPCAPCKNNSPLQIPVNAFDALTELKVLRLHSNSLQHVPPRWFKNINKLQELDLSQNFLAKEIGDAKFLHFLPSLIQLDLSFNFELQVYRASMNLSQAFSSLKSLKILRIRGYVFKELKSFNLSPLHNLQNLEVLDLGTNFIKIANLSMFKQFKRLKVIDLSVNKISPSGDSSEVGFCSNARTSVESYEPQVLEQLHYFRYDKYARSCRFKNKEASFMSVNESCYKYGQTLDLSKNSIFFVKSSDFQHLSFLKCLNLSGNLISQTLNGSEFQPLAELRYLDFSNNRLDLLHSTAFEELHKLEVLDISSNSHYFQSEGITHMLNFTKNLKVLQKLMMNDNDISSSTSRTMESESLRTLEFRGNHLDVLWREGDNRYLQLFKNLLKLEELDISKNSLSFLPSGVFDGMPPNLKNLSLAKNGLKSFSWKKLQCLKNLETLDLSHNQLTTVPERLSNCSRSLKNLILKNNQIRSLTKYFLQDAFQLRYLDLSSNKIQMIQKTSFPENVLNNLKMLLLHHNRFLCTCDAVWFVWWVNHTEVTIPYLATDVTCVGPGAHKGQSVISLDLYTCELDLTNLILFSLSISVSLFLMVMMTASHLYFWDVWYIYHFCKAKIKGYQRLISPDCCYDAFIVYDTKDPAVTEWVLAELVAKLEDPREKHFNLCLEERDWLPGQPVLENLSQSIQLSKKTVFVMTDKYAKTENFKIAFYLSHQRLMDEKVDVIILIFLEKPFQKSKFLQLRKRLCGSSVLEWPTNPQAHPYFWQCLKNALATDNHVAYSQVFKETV
Procedure: as §1
as §2, with “Following 6 hours incubation at 37° C., 5% CO2, the luciferase activity was determined by adding 15 μl of Steady Lite Plus substrate (Perkin Elmer) to each well and readout performed on a ViewLux ultraHTS microplate imager (Perkin Elmer).” left out

| Compound | TLR7-wt (LEC) (human TLR7) | TLR8-wt (LEC) (human TLR8) | further results |
| --- | --- | --- | --- |
| CCCCCNc1nc(N)nc2cc(OC)c(OC)cc12 [Compound 2] |  |  | TLR7-dIRR2_LEC [1]: 1.2; TLR8-wt_LEC (human TLR8): 1.5; TLR8-dIRR2_LEC [2]: 0.6; EC50 [3]: 4.4 µM |
| CCCC[C@@H](CO)Nc1nc(N)nc2cc(OC)c(OC)cc12 [Compound 4] |  |  | TLR7-dIRR2_LEC [1]: 2.4; TLR8-wt_LEC (human TLR8): 2.6; TLR8-dIRR2_LEC [2]: 1.7; EC50 [3]: 3 µM |
| CCC[C@@H](CCO)Nc1nc(N)nc2cc(OC)c(OC)cc12 [Compound 5] |  |  | TLR7-dIRR2_LEC [1]: 2.6; TLR8-wt_LEC (human TLR8): 6.7; TLR8-dIRR2_LEC [2]: 2.6; EC50 [3]: 3.3 µM |
| CCC[C@@H](CO)Nc1nc(N)nc2cc(OC)c(OC)cc12 [Compound 6] |  |  | TLR7-dIRR2_LEC [1]: 3.4; TLR8-wt_LEC (human TLR8): 4.4; TLR8-dIRR2_LEC [2]: 2.3; EC50 [3]: 3 µM |
| CCCCNc1nc(N)nc2ccccc12 [Compound 8] |  |  | TLR7-wt_LEC (human TLR7; lowest effective concentration): 0.1; TLR7-dIRR2_LEC [1]: 0.02; TLR8-wt_LEC (human TLR8): 0.1; TLR8-dIRR2_LEC [2]: 0.02 |
| CCCCNc1nc(N)nc2cccc(CCc3ccccn3)c12 [Compound 12] | 1.66 | 0.79 |  |
| CCCCNc1nc(N)nc2cc(C(=O)Nc3cccnc3)ccc12 [Compound 90] | 0.42 |  |  |
| CCCCNc1nc(N)nc2cc(C(=O)NCc3ccccn3)ccc12 [Compound 93] | 0.77 | 1.69 |  |
| CCCCNc1nc(N)nc2cc(C(=O)NCc3ccccc3)ccc12 [Compound 95] | 0.54 | 0.42 |  |
| CCCCNc1nc(N)nc2cccc(CCc3ccc(OC)cc3)c12 [Compound 96] | 2.7 | 16 |  |
| CCCCNc1nc(N)nc2cccc(CCc3cccc(OC)c3)c12 [Compound 97] | 0.6 | 0.83 |  |

Continued, in another order:

| TLR7-wt (LEC) (human TLR7) | TLR8-wt (LEC) (human TLR8) | Compound | further results |
| --- | --- | --- | --- |
| 0.65 | 4.77 | CCCCNc1nc(N)nc2ccc(C#CC(C)O)cc12 (centres unmarked) [Compound 14] |  |
| 0.49 | 3.27 | CCCCNC(=O)c1cccc2nc(N)nc(NCCCC)c12 [Compound 15] |  |
| 0.57 | 0.73 | CCCCNc1nc(N)nc2ccc(CCC(C)O)cc12 (centres unmarked) [Compound 16] |  |
| >25 | 7.05 | CCCCNc1nc(N)nc2ccc(C#N)cc12 [Compound 19] |  |
| >25 | 2.55 | CCCCNc1nc(N)nc2ccc(-c3cnn(C)c3)cc12 [Compound 20] |  |
| 6.07 | 1.95 | CCCCNc1nc(N)nc2ccc(C(C)=O)cc12 [Compound 22] |  |
| 10.23 | 5.05 | CCCCNc1nc(N)nc2ccc(C(C)O)cc12 (centres unmarked) [Compound 23] |  |
| 0.13 | 0.53 | CCCCNc1nc(N)nc2cc(C(=O)N3CCOCC3)ccc12 [Compound 91] |  |
| 1.53 | 5.87 | CCCCNc1nc(N)nc2cc(C(=O)NCCN(C)C)ccc12 [Compound 92] |  |
| 0.07 | 0.48 | CCCCNc1nc(N)nc2cc(C(=O)N(C)C)ccc12 [Compound 94] |  |
| 0.21 | 0.31 | CCCCNc1nc(N)nc2cccc(OCC(=O)OC)c12 [Compound 98] |  |
